Laboratory results from PubChem BioAssay (NCI).
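Values below derive from 48-hour exposures of cells grown in 96-well plates, with endpoints linearly interpolated between the two concentrations bracketing the appropriate inhibition level. GI50 marks 50% less growth. TGI: concentration producing complete growth inhibition.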

Columns and labels:
Test in all cases: DTP human tumour cell line panel, 48 h
A549 NSCLC = tested on: A549 NSCLC
CAKI-1 renal = tested on: CAKI-1 renal
HCC-2998 colon = tested on: HCC-2998 colon
HL-60(TB) leukemia = tested on: HL-60(TB) leukemia
MALME-3M melanoma = tested on: MALME-3M melanoma
OVCAR-8 ovarian = tested on: OVCAR-8 ovarian
SF-295 CNS = tested on: SF-295 CNS
SK-MEL-2 melanoma = tested on: SK-MEL-2 melanoma
SR leukemia = tested on: SR leukemia
SW-620 colon = tested on: SW-620 colon

SMILES	GI50 (A549 NSCLC)	TGI (A549 NSCLC)	GI50 (CAKI-1 renal)	TGI (CAKI-1 renal)	GI50 (HCC-2998 colon)	TGI (HCC-2998 colon)	GI50 (HL-60(TB) leukemia)	TGI (HL-60(TB) leukemia)	GI50 (MALME-3M melanoma)	TGI (MALME-3M melanoma)	GI50 (OVCAR-8 ovarian)	TGI (OVCAR-8 ovarian)	GI50 (SF-295 CNS)	TGI (SF-295 CNS)	GI50 (SK-MEL-2 melanoma)	TGI (SK-MEL-2 melanoma)	GI50 (SR leukemia)	TGI (SR leukemia)	GI50 (SW-620 colon)	TGI (SW-620 colon)
CC[C@@H](C(=O)[C@H](C)[C@H](O)[C@@H](C)[C@H]1O[C@H]([C@@H](CC)C(=O)N(CC)CC)CC[C@H]1C)C1O[C@]2(C=C[C@@H](O)[C@]3(CC[C@@](C)([C@H]4CC[C@](O)(CC)[C@H](C)O4)O3)O2)[C@H](C)C[C@@H]1C (stereo partly drawn)	2.95 µM	17.6 µM	2.12 µM	8.06 µM	2.97 µM	10.7 µM	2.24 µM	5.13 µM	2.21 µM	5.7 µM	3.42 µM	21.1 µM	2.49 µM	9.81 µM	3.19 µM	9.21 µM	2.91 µM	13.6 µM	3.22 µM	13.3 µM
CONC(C)=O	–	> 100 µM	–	> 100 µM	–	> 100 µM	–	> 100 µM	–	> 100 µM	–	> 100 µM	–	> 100 µM	–	> 100 µM	–	> 100 µM	–	> 100 µM
CCOC(=O)Nc1nc2ccc(Br)cc2s1	> 50 µM	> 50 µM	> 50 µM	> 50 µM	> 50 µM	> 50 µM	> 50 µM	> 50 µM	> 50 µM	> 50 µM	> 50 µM	> 50 µM	> 50 µM	> 50 µM	> 50 µM	> 50 µM	> 50 µM	> 50 µM	> 50 µM	> 50 µM
C=C1C(=O)O[C@H]2C[C@@H]1CC/C(C)=C/CC/C(C)=C/CC[C@@]2(C)O	> 100 µM	> 100 µM	34.6 µM	> 100 µM	24.1 µM	74.9 µM	20.7 µM	45.7 µM	–	–	81.2 µM	> 100 µM	> 100 µM	> 100 µM	46.7 µM	> 100 µM	26.5 µM	63.6 µM	35 µM	> 100 µM
COc1ccc(Cn2cc3c(c2-c2ccccc2)CCc2cnoc2-3)cc1OC	0.875 µM	> 100 µM	0.537 µM	> 100 µM	2.19 µM	> 100 µM	0.299 µM	1.69 µM	–	–	3.48 µM	> 100 µM	0.34 µM	> 100 µM	0.735 µM	> 100 µM	0.353 µM	> 100 µM	0.455 µM	> 100 µM
COc1cc2ncnc(Nc3cccc(Cl)c3F)c2cc1OC(=O)N1CCN(C)C[C@H]1C	> 34.3 µM	> 58.2 µM	0.555 µM	> 54.1 µM	> 45.4 µM	> 70 µM	> 47.3 µM	> 70.5 µM	> 39.5 µM	> 60.6 µM	> 40.9 µM	> 77.9 µM	> 38.1 µM	> 56 µM	> 43.6 µM	> 61.1 µM	> 45.8 µM	> 71.8 µM	> 44.9 µM	> 69.7 µM
CC(C)(C)[Si](C)(C)OC1[C@@H](O[Si](C)(C)C(C)(C)C)[C@@H](CNC(=O)NC(=O)CF)O[C@H]1n1cnc2c(NC(=O)Nc3ccccc3)ncnc21 (stereo partly drawn)	6.92 µM	> 50 µM	27.3 µM	> 50 µM	9.23 µM	31.3 µM	17.4 µM	> 50 µM	30.8 µM	> 50 µM	12.8 µM	> 50 µM	–	–	30.9 µM	> 50 µM	4.5 µM	32 µM	15.5 µM	> 50 µM
CCOC(=O)c1cc(C(=O)c2cc(OC)c(OC)c(OC)c2)n2c1ccc1ccccc12	0.286 µM	> 100 µM	0.0717 µM	> 100 µM	0.514 µM	> 100 µM	0.338 µM	> 100 µM	0.634 µM	> 100 µM	0.489 µM	> 100 µM	–	–	0.932 µM	> 100 µM	0.0704 µM	> 100 µM	0.157 µM	> 100 µM
CC(=O)Nc1c(I)c(NC(C)=O)c(I)c(C(=O)O)c1I	> 100 µM	> 100 µM	> 100 µM	> 100 µM	> 100 µM	> 100 µM	> 100 µM	> 100 µM	> 100 µM	> 100 µM	> 100 µM	> 100 µM	–	–	> 100 µM	> 100 µM	> 100 µM	> 100 µM	> 100 µM	> 100 µM
Clc1ccc(Nc2ccnc(N3CCN(c4ccnc5cc(Cl)ccc45)CC3)n2)cc1	3.32 µM	> 100 µM	2.47 µM	15.6 µM	3.39 µM	9.63 µM	3.54 µM	20 µM	2.32 µM	9.82 µM	3.15 µM	21.3 µM	1.73 µM	4.23 µM	–	–	2.51 µM	8.75 µM	2.88 µM	11.6 µM
